Data from ChEMBL document CHEMBL1201862, “PubChem BioAssay data set” (2004).
Calls of active or inactive are those of the source.

Experiments:
[1] = target: Serine/threonine-protein phosphatase PP1-alpha catalytic subunit (Homo sapiens, UniProt P62136); experiment: PP1 phosphatase inhibitors, dose response, biochemical, fluorescence (AID 2403);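 further: phosphatase turnover of OMFP into fluorescent 3-O-methylfluorescein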
[2] = target: T1, Serine/threonine-protein phosphatase (Homo sapiens, UniProt Q9BPW0); experiment: Counterscreen for inhibitors of PP1: fluorescence-based biochemical high throughput dose response assay to identify inhibitors of Protein Phosphatase 5 (PP5). [Related pubchem assays: 2034 (Summary (PP5 inhibitors)), 1987 (PP5 inhibitors in singlate), 2235 (PP1 inhibitors in singlate)]
T1 sequence (Q9BPW0 whole entry): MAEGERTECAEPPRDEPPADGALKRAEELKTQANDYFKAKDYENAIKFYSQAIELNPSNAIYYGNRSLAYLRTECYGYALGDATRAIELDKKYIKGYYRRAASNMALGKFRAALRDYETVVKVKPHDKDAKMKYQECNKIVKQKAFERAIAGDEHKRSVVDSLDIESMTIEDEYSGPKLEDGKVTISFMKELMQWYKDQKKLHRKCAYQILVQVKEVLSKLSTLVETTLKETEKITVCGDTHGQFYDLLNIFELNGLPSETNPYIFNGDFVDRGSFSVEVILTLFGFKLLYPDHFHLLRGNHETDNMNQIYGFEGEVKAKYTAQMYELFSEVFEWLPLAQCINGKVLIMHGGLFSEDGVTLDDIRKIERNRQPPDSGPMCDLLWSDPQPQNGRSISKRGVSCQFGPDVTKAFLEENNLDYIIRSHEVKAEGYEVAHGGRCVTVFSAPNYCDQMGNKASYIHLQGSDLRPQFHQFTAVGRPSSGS

Protein Rev = Protein Rev (Human immunodeficiency virus type 1 group M subtype B (isolate HXB2)(HIV-1), UniProt P04618); experiment: inhibitors of Rev binding to RRE RNA, dose response, biochemical, fluorescence polarization, HIV-1 (AID 434976); parameters: species or system Human immunodeficiency virus 1
[3] = target: Female germline-specific tumor suppressor gld-1 (Caenorhabditis elegans, UniProt Q17339); experiment: inhibitors of GLD-1 binding to TGE RNA, dose response, biochemical, fluorescence polarization, C. elegans (AID 2802);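 further: fluorescence polarization of labeled TGE RNA bound by purified gld-1 protein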
[4] = target: T2, Polyadenylate-binding protein 1 (Homo sapiens, UniProt P11940); experiment: PABP1 MLLE–PAM2 interaction inhibitors, dose response, miRNA deadenylation inhibitor project, biochemical, fluorescence polarization, Cy5-PAM2 peptide, secondary (AID 602260); type: functional; conditions: read-out: IC50_Mean
[5] = target: T2, Polyadenylate-binding protein 1; experiment: PABP1 MLLE–PAM2 binding inhibitor potency, dose response, biochemical, fluorescence polarization, FITC-PAM2 peptide (AID 602259); type: functional; conditions: read-out: IC50_Mean
[6] = target: Melanin-concentrating hormone receptor 1 (Homo sapiens, UniProt Q99705); experiment: Late-stage fluorescence-based counterscreen for antagonists of the G-protein coupled receptor 7 (GPR7): cell-based dose response assay to identify antagonists of the melanin-concentrating hormone receptor 1 (MCHR1). [Related pubchem assays (depositor defined):AID1861, AID1880, AID1952, AID2148, AID2251, AID2257, AID485339]; type: functional;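 further: stimulated with 30 nM MCH peptide agonist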
[7] = target: Voltage-gated N-type calcium channel alpha-1B subunit/Amyloid beta A4 precursor protein-binding family A member 1 (Homo sapiens, UniProt Q00975+Q02410); experiment: disruptors of Mint-PDZ/N-type channel peptide interaction – biochemical, HTRF, set 2, SAR follow-up (AID 434980); type: functional
Beta-galactosidase = Beta-galactosidase (Escherichia coli, UniProt Q8VNN2); experiment: beta-galactosidase enzyme inhibitors and activators, dose response, artefact control for CCR6 antagonist project, biochemical, E. coli enzyme, set 3 (AID 504712); type: functional
Streptococcus = experiment: Group A Streptococcus viability loss, dose response, counter-screen for streptokinase expression inhibitor project, luminescence, BacTiterGlo (AID 1915); type: functional, organism-based;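 further: potency for reduction of bacterial viability or growth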
Nonstructural protein 1 = Nonstructural protein 1 (Influenza A virus, UniProt Q194T2); type: functional, Influenza A virus (A/California/07/2009(H1N1))
Streptokinase A = target: T3, Streptokinase A (Streptococcus pyogenes serotype M1, UniProt P10520); experiment: S. pyogenes streptokinase expression inhibitors, potency, dose response, plasminogen activation absorbance, OD405 (AID 1914); type: functional, Streptococcus pyogenes M1 GAS;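 further: secreted streptokinase activity via plasminogen activation per viability signal from cell pellet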
T3 sequence (P10520 whole entry): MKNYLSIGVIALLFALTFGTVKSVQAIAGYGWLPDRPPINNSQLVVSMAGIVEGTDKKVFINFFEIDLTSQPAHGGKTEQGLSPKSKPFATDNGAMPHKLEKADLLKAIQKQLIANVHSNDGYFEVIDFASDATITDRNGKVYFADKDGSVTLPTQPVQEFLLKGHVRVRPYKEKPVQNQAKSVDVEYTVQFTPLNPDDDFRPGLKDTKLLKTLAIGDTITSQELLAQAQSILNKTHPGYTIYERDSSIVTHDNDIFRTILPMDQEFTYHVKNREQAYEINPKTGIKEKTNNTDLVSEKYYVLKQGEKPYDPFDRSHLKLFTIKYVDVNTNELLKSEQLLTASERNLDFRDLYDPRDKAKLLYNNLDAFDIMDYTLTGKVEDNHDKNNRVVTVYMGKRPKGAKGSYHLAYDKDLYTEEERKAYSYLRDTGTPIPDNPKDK

[8] = system: Streptococcus sp. 'group A'; experiment: growth inhibition of control SK(-) GAS strain, dose response, counter-screen for streptokinase expression inhibitor project, luminescence, kanamycin, BacTiterGlo, confirmation (AID 1900); type: functional, organism-based
NS3 = NS3 (Hepatitis C virus, UniProt A3EZJ3); experiment: PubChem AID 2173; parameters: species or system Hepacivirus hominis
NS3, sequence (A3EZJ3 whole entry): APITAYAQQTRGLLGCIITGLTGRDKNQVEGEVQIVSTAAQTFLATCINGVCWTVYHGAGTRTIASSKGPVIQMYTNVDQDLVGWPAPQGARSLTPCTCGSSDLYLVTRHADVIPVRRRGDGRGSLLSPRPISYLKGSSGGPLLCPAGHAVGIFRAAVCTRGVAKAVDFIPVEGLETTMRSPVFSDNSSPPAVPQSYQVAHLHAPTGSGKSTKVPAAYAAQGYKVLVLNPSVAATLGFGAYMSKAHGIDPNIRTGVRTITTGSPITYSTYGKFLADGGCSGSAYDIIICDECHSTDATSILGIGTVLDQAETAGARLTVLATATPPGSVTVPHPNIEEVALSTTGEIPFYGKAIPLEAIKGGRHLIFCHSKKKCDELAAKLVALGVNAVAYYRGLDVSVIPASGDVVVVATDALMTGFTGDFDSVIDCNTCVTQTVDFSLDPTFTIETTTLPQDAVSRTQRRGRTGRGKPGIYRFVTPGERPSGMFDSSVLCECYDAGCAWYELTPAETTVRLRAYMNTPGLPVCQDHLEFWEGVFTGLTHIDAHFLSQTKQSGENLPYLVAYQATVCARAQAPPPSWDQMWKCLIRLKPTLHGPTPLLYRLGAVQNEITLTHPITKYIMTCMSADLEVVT

T2 sequence (P11940 whole entry): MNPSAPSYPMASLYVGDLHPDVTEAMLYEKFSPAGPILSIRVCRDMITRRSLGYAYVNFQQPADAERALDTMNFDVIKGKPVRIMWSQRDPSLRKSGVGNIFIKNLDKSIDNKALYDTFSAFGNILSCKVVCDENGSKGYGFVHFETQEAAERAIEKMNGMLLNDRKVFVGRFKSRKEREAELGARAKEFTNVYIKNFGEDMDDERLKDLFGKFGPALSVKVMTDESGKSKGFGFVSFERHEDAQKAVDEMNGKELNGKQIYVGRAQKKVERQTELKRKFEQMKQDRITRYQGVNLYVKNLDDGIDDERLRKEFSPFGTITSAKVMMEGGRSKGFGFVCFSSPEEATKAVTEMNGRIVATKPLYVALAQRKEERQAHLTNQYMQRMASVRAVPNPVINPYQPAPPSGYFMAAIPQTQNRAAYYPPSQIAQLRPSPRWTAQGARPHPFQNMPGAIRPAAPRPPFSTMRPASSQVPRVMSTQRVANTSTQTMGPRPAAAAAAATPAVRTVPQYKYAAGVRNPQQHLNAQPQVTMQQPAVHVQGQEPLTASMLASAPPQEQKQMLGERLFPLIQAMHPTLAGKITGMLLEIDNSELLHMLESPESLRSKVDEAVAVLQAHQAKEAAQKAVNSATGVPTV
Melanin-concentrating hormone receptor 1, sequence (Q99705 whole entry): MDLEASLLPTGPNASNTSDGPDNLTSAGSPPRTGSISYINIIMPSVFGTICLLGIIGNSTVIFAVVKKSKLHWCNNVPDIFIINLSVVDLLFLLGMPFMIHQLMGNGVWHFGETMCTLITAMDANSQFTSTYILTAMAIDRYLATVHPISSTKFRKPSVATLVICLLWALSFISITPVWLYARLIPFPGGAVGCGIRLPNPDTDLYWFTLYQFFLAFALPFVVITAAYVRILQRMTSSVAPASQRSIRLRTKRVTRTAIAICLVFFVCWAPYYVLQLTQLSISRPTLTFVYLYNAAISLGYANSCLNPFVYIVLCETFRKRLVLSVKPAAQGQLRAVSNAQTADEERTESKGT
Beta-galactosidase, sequence (Q8VNN2 whole entry): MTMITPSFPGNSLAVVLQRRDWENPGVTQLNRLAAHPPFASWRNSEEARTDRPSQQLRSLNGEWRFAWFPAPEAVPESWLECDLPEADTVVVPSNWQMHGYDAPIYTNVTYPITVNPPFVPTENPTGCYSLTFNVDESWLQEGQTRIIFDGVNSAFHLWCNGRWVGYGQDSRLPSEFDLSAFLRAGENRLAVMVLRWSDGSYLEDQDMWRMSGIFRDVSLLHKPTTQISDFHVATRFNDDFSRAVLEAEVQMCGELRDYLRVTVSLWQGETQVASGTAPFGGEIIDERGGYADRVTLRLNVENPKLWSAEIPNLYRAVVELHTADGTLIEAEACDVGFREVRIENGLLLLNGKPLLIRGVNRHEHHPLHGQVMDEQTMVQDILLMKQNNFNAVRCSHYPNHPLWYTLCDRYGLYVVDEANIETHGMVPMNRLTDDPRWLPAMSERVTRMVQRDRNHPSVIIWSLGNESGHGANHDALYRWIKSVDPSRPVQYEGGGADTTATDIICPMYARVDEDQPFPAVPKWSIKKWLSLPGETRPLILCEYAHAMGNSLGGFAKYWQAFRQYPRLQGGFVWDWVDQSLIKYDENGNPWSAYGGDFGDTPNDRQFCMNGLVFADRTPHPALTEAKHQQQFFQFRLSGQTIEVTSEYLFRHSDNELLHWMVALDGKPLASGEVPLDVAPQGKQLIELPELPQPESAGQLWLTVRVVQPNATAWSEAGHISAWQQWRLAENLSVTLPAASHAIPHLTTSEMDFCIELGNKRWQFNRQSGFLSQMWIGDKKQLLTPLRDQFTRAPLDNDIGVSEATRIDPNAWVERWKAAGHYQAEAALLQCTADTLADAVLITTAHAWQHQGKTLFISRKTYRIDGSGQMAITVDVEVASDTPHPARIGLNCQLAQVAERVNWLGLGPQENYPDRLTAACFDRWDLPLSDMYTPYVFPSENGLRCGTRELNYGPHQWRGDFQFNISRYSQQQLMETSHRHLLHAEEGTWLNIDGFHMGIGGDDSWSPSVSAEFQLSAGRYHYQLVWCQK
Protein Rev, sequence (P04618 whole entry): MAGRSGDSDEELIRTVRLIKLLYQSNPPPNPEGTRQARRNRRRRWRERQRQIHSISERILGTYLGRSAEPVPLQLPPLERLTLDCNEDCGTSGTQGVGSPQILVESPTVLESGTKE
Serine/threonine-protein phosphatase PP1-alpha catalytic subunit, sequence (P62136 whole entry): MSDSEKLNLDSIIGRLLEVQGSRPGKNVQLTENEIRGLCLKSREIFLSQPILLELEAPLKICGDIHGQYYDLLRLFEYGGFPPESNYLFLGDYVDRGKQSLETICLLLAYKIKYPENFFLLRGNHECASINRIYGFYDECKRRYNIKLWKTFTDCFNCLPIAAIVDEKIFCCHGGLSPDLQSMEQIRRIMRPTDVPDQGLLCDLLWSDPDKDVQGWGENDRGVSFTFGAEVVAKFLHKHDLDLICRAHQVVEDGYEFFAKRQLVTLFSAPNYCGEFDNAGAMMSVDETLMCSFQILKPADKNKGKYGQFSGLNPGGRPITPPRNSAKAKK
Female germline-specific tumor suppressor gld-1, sequence (Q17339 whole entry): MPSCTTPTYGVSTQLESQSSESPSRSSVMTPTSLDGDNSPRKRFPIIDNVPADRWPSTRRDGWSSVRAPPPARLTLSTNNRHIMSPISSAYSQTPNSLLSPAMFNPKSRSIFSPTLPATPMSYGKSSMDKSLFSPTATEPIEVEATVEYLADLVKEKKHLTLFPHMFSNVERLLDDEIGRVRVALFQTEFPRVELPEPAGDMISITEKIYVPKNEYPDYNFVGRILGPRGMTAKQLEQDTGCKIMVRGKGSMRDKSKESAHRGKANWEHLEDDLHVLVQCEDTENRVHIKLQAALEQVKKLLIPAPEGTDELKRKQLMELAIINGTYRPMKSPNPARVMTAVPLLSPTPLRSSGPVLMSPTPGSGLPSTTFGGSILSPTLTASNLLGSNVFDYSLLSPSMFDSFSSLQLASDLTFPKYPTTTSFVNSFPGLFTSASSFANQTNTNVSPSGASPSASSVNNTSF
Nonstructural protein 1, sequence (Q194T2 whole entry): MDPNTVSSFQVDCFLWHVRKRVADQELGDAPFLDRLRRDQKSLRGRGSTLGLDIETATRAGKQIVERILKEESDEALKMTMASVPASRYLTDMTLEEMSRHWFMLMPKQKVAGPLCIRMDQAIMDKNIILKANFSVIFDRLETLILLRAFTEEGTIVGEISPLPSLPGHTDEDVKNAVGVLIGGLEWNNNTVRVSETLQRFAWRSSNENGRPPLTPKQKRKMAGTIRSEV

Clc1ccc(-n2nnnc2-c2cnc(-c3ccccn3)nc2-c2cccs2)cc1
IC50 [1]: 4.64 µM (active) | IC50 [2]: > 67 µM (not active)

COc1ccc(NS(=O)(=O)c2ccc(Cl)s2)cn1
IC50 (Protein Rev): 6.3 µM (active) | IC50 [3]: 4.54 µM (active) | IC50 [4]: > 66 µM (inactive) | IC50 [5]: 14.9 µM (active)

Cc1ccccc1CN1CCCCC1C(=O)N1CCN(c2ccc([N+](=O)[O-])cc2)CC1 (centres undefined)
IC50 [6]: 5.8 µM (active)

CC(C)(C)CCNC(=O)c1cc(-c2ccco2)nc2ccccc12
IC50 [7]: > 56.8 µM (inactive)

COCC/N=c1\scc(-c2ccc3c(c2)NC(=O)CO3)n1/N=C(\C)c1ccc(O)cc1
IC50 (Beta-galactosidase): > 66.6 µM (inactive)

COc1ccc(/C=N\NC(=O)c2cc(O)c(O)c(O)c2)cc1COc1ccc(C(=O)OCC(C)C)cc1
EC50 (Streptococcus): 6.69 µM (active) | IC50 (Nonstructural protein 1): 78.6 µM (active) | EC50 (Streptokinase A): > 150 µM (not active) | EC50 [8]: 6.26 µM (active) | IC50 (NS3): 4.44 µM (active)
